BindingDB's records for doi:10.1016/j.bioorg.2016.12.011 (University of Karachi, 2017)

Each molecule was assayed against T1, Beta-glucuronidase (Bos taurus, UniProt A3KMY8) (assay: β-Glucuronidase Inhibition Assay).
T1 sequence (A3KMY8 whole entry): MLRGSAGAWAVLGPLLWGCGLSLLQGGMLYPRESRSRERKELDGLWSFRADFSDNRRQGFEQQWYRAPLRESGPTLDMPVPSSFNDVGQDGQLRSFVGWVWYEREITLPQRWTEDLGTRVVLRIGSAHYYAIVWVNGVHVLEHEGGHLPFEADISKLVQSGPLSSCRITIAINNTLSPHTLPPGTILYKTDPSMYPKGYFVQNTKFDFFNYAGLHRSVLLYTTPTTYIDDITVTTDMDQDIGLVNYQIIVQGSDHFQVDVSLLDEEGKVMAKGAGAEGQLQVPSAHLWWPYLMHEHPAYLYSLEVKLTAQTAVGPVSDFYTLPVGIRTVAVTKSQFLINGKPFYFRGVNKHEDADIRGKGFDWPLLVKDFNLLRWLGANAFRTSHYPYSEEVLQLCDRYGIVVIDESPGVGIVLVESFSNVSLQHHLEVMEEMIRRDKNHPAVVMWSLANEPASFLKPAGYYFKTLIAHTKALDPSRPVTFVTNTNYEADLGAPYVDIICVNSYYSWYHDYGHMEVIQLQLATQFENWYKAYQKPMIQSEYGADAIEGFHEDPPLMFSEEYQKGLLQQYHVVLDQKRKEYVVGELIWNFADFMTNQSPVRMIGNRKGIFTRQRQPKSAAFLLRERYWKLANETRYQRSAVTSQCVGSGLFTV
Description: Total volume of reaction was 250 μL. […] Reaction mixture comprised of 0.1 M acetate buffer (185 μL), test compound solution in DMSO (5 μL), enzyme solution (10 μL), was incubated for 30 min at 37 °C. […] All assays were run in triplicate.

Row | Structure (SMILES) | IC50
1 | NC(=S)N/N=C/c1ccc2ccc3cccc4ccc1c2c34 [(E)-2-(Pyren-1-ylmethylene)hydrazine-1-carbothioamide (2)] | 5.5 µM
2 | Clc1ccc(-c2csc(C/C=C/c3ccc4ccc5cccc6ccc3c4c56)n2)cc1 [(E)-4-(4-Chlorophenyl)-2-(3-(pyren-1-yl)allyl)thiazole (10)] | 11.1 µM
3 | C(=N\Nc1nc(-c2ccc(-c3ccccc3)cc2)cs1)/c1ccc2ccc3cccc4ccc1c2c34 [(E)-4-([1,10-Biphenyl]-4-yl)-2-(2-(pyren-1-ylmethylene)hydrazinyl)thiazole (5)] | 36.1 µM

Further molecules by falling IC50, results first:

Row | IC50 | Structure (SMILES)
4 | 40.1 µM | Cc1ccc(-c2csc(N/N=C/c3ccc4ccc5cccc6ccc3c4c56)n2)cc1 [(E)-2-(2-(Pyren-1-ylmethylene)hydrazinyl)-4-(p-tolyl)thiazole (4)]
5 | 24.4 µM | COc1ccc(-c2csc(N/N=C/c3ccc4ccc5cccc6ccc3c4c56)n2)cc1 [(E)-4-(4-Methoxyphenyl)-2-(2-(pyren-1-ylmethylene)hydrazinyl)thiazole (3)]
